System: human retinal microvascular endothelial cells
Test: Angiogenesis-inhibiting signals (mRNA quantification by real-time quantitative PCR)
Format: cell-based
Details: various concentrations; for angiogenesis-inhibiting signals (changes of gene expression levels): four hours incubation, FIG. 6; for mRNA amount of c-myc, integrin-αv, integrin-β3: FIG. 6 legend
Description: Human retinal microvascular endothelial cells were rendered to grow exponentially in the presence of serum/growth factors/angiogenesis-promoting factors, and various concentrations of rifampicin, rifamycin SV and 3-formyl rifamycin were added. After four hours-incubation, RNA was extracted and subjected to mRNA quantification of various genes using aforementioned LightCycler-based highly sensitive real-time quantitative PCR. A, B and C represent the quantification results of c-myc gene; D, E and F represent those of integrin-αv gene; G, H and I represent those of integrin-β3 gene. Further, A, D and G indicate the changes of mRNA levels after adding rifampicin; B, E and H indicate those after adding rifamycin SV; C, F and I indicate those after adding 3-formyl rifamycin.

Structure (SMILES) | angiogenesis-inhibiting signals (changes of gene expression levels) | mRNA amount of c-myc, integrin-αv, integrin-β3
CO[C@H]1/C=C/O[C@@]2(C)Oc3c(C)c(O)c4c(O)c(c(C=O)c(O)c4c3C2=O)NC(=O)/C(C)=C\C=C\[C@H](C)[C@H](O)[C@@H](C)[C@@H](O)[C@@H](C)[C@H](OC(C)=O)[C@@H]1C [3-formyl rifamycin] | exhibit similar activity potently | inhibited in a concentration-dependent manner
CO[C@H]1/C=C/O[C@@]2(C)Oc3c(C)c([O-])c4c(O)c(cc(O)c4c3C2=O)NC(=O)/C(C)=C\C=C\[C@H](C)[C@H](O)[C@@H](C)[C@@H](O)[C@@H](C)[C@H](OC(C)=O)[C@@H]1C.[Na+] [rifamycin SV] | exhibit similar activity potently | inhibited in a concentration-dependent manner

— US9333194B2, “Use of ansamycin antibiotics and method of screening novel angiogenesis inhibitor” (Japan Science & Technology Agency, priority 2002, dated 2016)
